Measured values published in ChEMBL document CHEMBL4680163, “Discovery of potent epidermal growth factor receptor (EGFR) degraders by proteolysis targeting chimera (PROTAC)” (Eur J Med Chem, 2020).
Activity calls are given as the source filed them. No cut-off for these calls is given here.

Test system: HCC827
Assay: Induction of apoptosis in human HCC827 cells assessed as viable cells at 1 uM incubated for 32 hrs by annexin V-FITC and PI staining based flow cytometry analysis (reference value: 72.15 %)
Type: functional
Conditions: read-out: Activity

Question: How did the viability at 1 µM turn out when `CN(C)C1CCN(c2ccc(Nc3cc4c(N5CCC(CO)CC5)nc(Nc5ccc(F)cc5)nc4cn3)nc2)CC1` was run?
Answer: 24.9%

Test system: HCC827
Assay: Induction of cell cycle arrest in human HCC827 cells assessed as accumulation in G1 phase at 0.1 uM incubated for 32 hrs by PI staining based flow cytometry analysis (reference value: 50.48 %)
Type: functional
Conditions: not given

Question: How did the Activity turn out when `CN(C)C1CCN(c2ccc(Nc3cc4c(N5CCC(CO)CC5)nc(Nc5ccc(F)cc5)nc4cn3)nc2)CC1` was run?
Answer: 78.84%

Test system: HCC827
Assay: Induction of cell cycle arrest in human HCC827 cells assessed as accumulation in S phase at 1 uM incubated for 32 hrs by PI staining based flow cytometry analysis (reference value: 41.26 %)
Type: functional
Conditions: not given

Question: How did the Activity turn out when `CN(C)C1CCN(c2ccc(Nc3cc4c(N5CCC(CO)CC5)nc(Nc5ccc(F)cc5)nc4cn3)nc2)CC1` was run?
Answer: 13.43%

Test system: HCC827
Assay: Induction of apoptosis in human HCC827 cells assessed as necrotic cells at 1 uM incubated for 32 hrs by annexin V-FITC and PI staining based flow cytometry analysis (reference value: 7.12 %)
Type: functional
Conditions: not given

Question: With `CN(C)C1CCN(c2ccc(Nc3cc4c(N5CCC(CO)CC5)nc(Nc5ccc(F)cc5)nc4cn3)nc2)CC1` as the compound, how does the Activity read?
Answer: 16.48%

Test system: HCC827
Assay: Induction of cell cycle arrest in human HCC827 cells assessed as accumulation in G2 phase at 0.1 uM incubated for 32 hrs by PI staining based flow cytometry analysis (reference value: 8.25 %)
Type: functional
Conditions: not given

Question: How did the Activity turn out when `CN(C)C1CCN(c2ccc(Nc3cc4c(N5CCC(CO)CC5)nc(Nc5ccc(F)cc5)nc4cn3)nc2)CC1` was run?
Answer: 7.72%

Target: Epidermal growth factor receptor (Homo sapiens) (UniProt P00533)
Sequence (P00533 whole entry): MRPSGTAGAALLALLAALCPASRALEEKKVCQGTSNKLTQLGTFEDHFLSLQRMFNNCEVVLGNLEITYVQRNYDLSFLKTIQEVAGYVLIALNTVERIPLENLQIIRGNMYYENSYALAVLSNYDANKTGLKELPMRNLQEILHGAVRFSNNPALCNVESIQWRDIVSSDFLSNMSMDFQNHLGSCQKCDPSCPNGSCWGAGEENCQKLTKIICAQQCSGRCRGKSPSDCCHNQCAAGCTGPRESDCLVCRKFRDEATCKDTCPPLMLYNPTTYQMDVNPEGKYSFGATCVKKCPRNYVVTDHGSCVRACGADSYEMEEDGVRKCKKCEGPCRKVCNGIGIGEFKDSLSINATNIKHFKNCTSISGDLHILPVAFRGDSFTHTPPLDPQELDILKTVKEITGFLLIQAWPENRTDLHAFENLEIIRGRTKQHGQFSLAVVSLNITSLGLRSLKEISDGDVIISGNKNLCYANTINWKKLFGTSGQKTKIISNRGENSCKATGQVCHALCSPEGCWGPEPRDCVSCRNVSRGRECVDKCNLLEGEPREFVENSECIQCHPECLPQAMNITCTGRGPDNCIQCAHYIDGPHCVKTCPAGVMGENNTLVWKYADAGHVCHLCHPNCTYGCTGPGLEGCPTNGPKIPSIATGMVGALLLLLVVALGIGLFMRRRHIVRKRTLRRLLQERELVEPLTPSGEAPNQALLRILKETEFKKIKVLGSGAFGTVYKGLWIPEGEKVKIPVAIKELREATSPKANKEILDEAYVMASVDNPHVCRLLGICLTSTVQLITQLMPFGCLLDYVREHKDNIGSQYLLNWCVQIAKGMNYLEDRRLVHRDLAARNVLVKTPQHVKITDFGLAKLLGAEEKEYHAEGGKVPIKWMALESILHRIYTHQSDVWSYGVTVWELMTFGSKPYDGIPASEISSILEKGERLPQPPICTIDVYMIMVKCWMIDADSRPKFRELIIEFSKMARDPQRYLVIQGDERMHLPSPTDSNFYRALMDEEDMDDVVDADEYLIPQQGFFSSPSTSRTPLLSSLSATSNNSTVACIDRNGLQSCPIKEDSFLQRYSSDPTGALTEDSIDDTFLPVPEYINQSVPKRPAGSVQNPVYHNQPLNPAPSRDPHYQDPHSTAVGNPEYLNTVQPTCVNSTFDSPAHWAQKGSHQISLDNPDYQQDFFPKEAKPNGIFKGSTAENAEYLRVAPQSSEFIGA
Assay: Inhibition of EGFR in human HCC827 cells assessed as reduction in EGFR phosphorylation incubated for 36 hrs by Western blot analysis
Type: cell-based
Conditions: dose 0.1-1 µM

Question: For `CN(C)C1CCN(c2ccc(Nc3cc4c(N5CCC(CO)CC5)nc(Nc5ccc(F)cc5)nc4cn3)nc2)CC1`, which inhibition is on record?
Answer: Active

Test system: HCC827
Assay: Induction of apoptosis in human HCC827 cells assessed as late apoptotic cells at 0.1 uM incubated for 32 hrs by annexin V-FITC and PI staining based flow cytometry analysis (reference value: 14.23 %)
Type: functional
Conditions: not given

Question: Which Activity does the source give for `CN(C)C1CCN(c2ccc(Nc3cc4c(N5CCC(CO)CC5)nc(Nc5ccc(F)cc5)nc4cn3)nc2)CC1` here?
Answer: 43.7%

Test system: HCC827
Assay: Induction of cell cycle arrest in human HCC827 cells assessed as accumulation in G2 phase at 1 uM incubated for 32 hrs by PI staining based flow cytometry analysis (reference value: 8.25 %)
Type: functional
Conditions: not given

Question: With `CN(C)C1CCN(c2ccc(Nc3cc4c(N5CCC(CO)CC5)nc(Nc5ccc(F)cc5)nc4cn3)nc2)CC1` as the compound, how does the Activity read?
Answer: 7.56%

Test system: HCC827
Assay: Induction of apoptosis in human HCC827 cells assessed as necrotic cells at 0.1 uM incubated for 32 hrs by annexin V-FITC and PI staining based flow cytometry analysis (reference value: 6.68 %)
Type: functional
Conditions: not given

Question: `CN(C)C1CCN(c2ccc(Nc3cc4c(N5CCC(CO)CC5)nc(Nc5ccc(F)cc5)nc4cn3)nc2)CC1` was tested. Which Activity did it give?
Answer: 8.35%

Test system: HCC827
Assay: Induction of apoptosis in human HCC827 cells assessed as early apoptotic cells at 1 uM incubated for 32 hrs by annexin V-FITC and PI staining based flow cytometry analysis (reference value: 2.72%)
Type: functional
Conditions: not given

Question: How did the Activity turn out when `CN(C)C1CCN(c2ccc(Nc3cc4c(N5CCC(CO)CC5)nc(Nc5ccc(F)cc5)nc4cn3)nc2)CC1` was run?
Answer: 4.79%

Test system: HCC827
Assay: Induction of cell cycle arrest in human HCC827 cells assessed as accumulation in G1 phase at 1 uM incubated for 32 hrs by PI staining based flow cytometry analysis (reference value: 50.48 %)
Type: functional
Conditions: not given

Question: `CN(C)C1CCN(c2ccc(Nc3cc4c(N5CCC(CO)CC5)nc(Nc5ccc(F)cc5)nc4cn3)nc2)CC1` was tested. Which Activity did it give?
Answer: 78.98%

Test system: HCC827
Assay: Induction of apoptosis in human HCC827 cells assessed as early apoptotic cells at 0.1 uM incubated for 32 hrs by annexin V-FITC and PI staining based flow cytometry analysis (reference value: 2.31 %)
Type: functional
Conditions: not given

Question: With `CN(C)C1CCN(c2ccc(Nc3cc4c(N5CCC(CO)CC5)nc(Nc5ccc(F)cc5)nc4cn3)nc2)CC1` as the compound, how does the Activity read?
Answer: 8.5%

Test system: HCC827
Assay: Induction of apoptosis in human HCC827 cells assessed as viable cells at 0.1 uM incubated for 32 hrs by annexin V-FITC and PI staining based flow cytometry analysis (reference value: 76.79 %)
Type: functional
Conditions: read-out: Activity

Question: With `CN(C)C1CCN(c2ccc(Nc3cc4c(N5CCC(CO)CC5)nc(Nc5ccc(F)cc5)nc4cn3)nc2)CC1` as the compound, how does the viability at 0.1 µM read?
Answer: 39.5%

Test system: HCC827
Assay: Induction of cell cycle arrest in human HCC827 cells assessed as accumulation in S phase at 0.1 uM incubated for 32 hrs by PI staining based flow cytometry analysis (reference value: 41.26 %)
Type: functional
Conditions: not given

Question: `CN(C)C1CCN(c2ccc(Nc3cc4c(N5CCC(CO)CC5)nc(Nc5ccc(F)cc5)nc4cn3)nc2)CC1` was tested. Which Activity did it give?
Answer: 13.43%

Test system: HCC827
Assay: Induction of apoptosis in human HCC827 cells assessed as late apoptotic cells at 1 uM incubated for 32 hrs by annexin V-FITC and PI staining based flow cytometry analysis (reference value: 18.02%)
Type: functional
Conditions: not given

Question: For `CN(C)C1CCN(c2ccc(Nc3cc4c(N5CCC(CO)CC5)nc(Nc5ccc(F)cc5)nc4cn3)nc2)CC1`, which Activity is on record?
Answer: 53.88%
